Measurements as given in patent US8889370B2, “Method of determining inhibitors of coagulation” (Siemens Healthcare Diagnostics Products GmbH, priority 2010, dated 2014).
pKi: −log10 of the molar value. Read-outs that look alike come from different tables or passages of the source.

Molecular target: T1, factor Xa (Homo sapiens, UniProt P00742)
T1 construct: an F Xa reagent consisting of a lyophilized plasma fraction containing factor Xa; purchased Siemens Healthcare Diagnostics (Berichrom heparin assay, F Xa reagent); host or cells: plasma fraction
T1 sequence (P00742 235-488 limits assumed): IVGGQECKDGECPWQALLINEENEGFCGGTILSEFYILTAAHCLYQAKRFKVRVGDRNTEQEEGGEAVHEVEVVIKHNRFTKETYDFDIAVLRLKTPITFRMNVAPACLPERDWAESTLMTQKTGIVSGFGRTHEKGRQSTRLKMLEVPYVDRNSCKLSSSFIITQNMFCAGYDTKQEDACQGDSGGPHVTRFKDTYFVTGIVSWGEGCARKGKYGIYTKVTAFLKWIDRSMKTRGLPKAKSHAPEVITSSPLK
T1 sequence (P00742 41-179 partner limits assumed): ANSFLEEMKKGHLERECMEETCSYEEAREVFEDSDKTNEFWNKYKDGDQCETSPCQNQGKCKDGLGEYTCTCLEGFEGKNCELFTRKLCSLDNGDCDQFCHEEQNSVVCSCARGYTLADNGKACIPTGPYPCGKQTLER
Experiment: Determination of the F Xa binding constant (Ki) of peptide aldehyde ligands, chromogenic assay with Berichrom heparin assay reagents, Dixon plot
Format: biochemical
Protocol: The kinetic data of the peptide aldehyde ligands were determined in chromogenic assay formats by measuring the rate of hydrolysis of chromogenic peptide substrates which compete with the peptide aldehyde ligands for binding to the active site of the particular enzyme, at various substrate concentrations and peptide aldehyde-ligand concentrations. The binding constant (Ki) was determined by a known method (Dixon, M., 1953, Biochem J, 55, 170-171).
The F Xa binding constant was determined using the reagents of the Berichrom® heparin assay from Siemens Healthcare Diagnostics. The Berichrom® heparin assay consists of: an F Xa reagent consisting of a lyophilized plasma fraction containing factor Xa, and additives such as Tris, NaCl, EDTA and preservatives, a chromogenic substrate reagent (Z-D-Leu-Gly-Arg-ANBA-methyl-amide), a dilution reagent for reconstitution, and a dextran sulfate reagent consisting of lyophilized dextran sulfate.
After reconstitution in 10 ml of dilution reagent, the dextran sulfate concentration is 0.02 g/l. The F Xa reagent is reconstituted with the reconstituted dextran sulfate reagent. The substrate reagent, after constitution with 2 ml of deionized water, contains 4 mmol/l Z-D-Leu-Gly-Arg-ANBA-methyl-amide. Dilutions of the substrate reagent were prepared with deionized water. The peptide aldehyde ligands prepared according to example 1 were dissolved in water and used as sample. The assays were carried out automatically in a BCS® XP coagulation analyzer (Siemens Healthcare Diagnostics, Marburg, Germany).
A reaction mix was mixed together as follows:
15 μl of sample (peptide aldehyde ligand B-r-G-R—H or B-f-P—R—H), […]
30 μl of substrate reagent (Z-D-Leu-Gly-Arg-ANBA-methyl-amide).
The reaction rate in mE/min was determined on the basis of the increase in optical density of the reaction mix at a wavelength of 405 nm. For this, the optical density of the reaction mixes was determined in a time interval from 10 to 70 seconds.

With `N=C(N)NCCC[C@@H](C=O)NC(=O)CNC(=O)[C@@H](CCCNC(=N)N)NC(=O)CCC(=O)NCCCOCCOCCOCCCNC(=O)CCCC[C@@H]1SC[C@@H]2NC(=O)N[C@@H]21` [B-r-G-R-H, biotinyl-Ttds-D-Arg-Gly-Arg-H] the 1/Reaction rate (CB-r-G-R-H 0.20380 μM, Csubstrate = 0.5 mM) was 5.521 min/E, the 1/Reaction rate (CB-r-G-R-H 0.20380 μM, Csubstrate = 2 mM) was 1.457 min/E and the 1/Reaction rate (CB-r-G-R-H 0.20380 μM, Csubstrate = 4 mM) was 0.8262 min/E. For the same compound, the 1/Reaction rate (CB-r-G-R-H 0.32609 μM, Csubstrate = 0.5 mM) was 6.13 min/E, the 1/Reaction rate (CB-r-G-R-H 0.32609 μM, Csubstrate = 2 mM) was 1.612 min/E and the 1/Reaction rate (CB-r-G-R-H 0.32609 μM, Csubstrate = 4 mM) was 0.9061 min/E. The 1/Reaction rate (CB-r-G-R-H 0.40761 μM, Csubstrate = 0.5 mM) was 6.408 min/E, the 1/Reaction rate (CB-r-G-R-H 0.40761 μM, Csubstrate = 2 mM) was 1.659 min/E and the 1/Reaction rate (CB-r-G-R-H 0.40761 μM, Csubstrate = 4 mM) was 0.9259 min/E. The 1/Reaction rate (CB-r-G-R-H 0.65217 μM, Csubstrate = 0.5 mM) was 7.754 min/E, the 1/Reaction rate (CB-r-G-R-H 0.65217 μM, Csubstrate = 2 mM) was 1.975 min/E and the 1/Reaction rate (CB-r-G-R-H 0.65217 μM, Csubstrate = 4 mM) was 1.099 min/E. The 1/Reaction rate (CB-r-G-R-H 0.81522 μM, Csubstrate = 0.5 mM) was 8.403 min/E, the 1/Reaction rate (CB-r-G-R-H 0.81522 μM, Csubstrate = 2 mM) was 2.115 min/E and the 1/Reaction rate (CB-r-G-R-H 0.81522 μM, Csubstrate = 4 mM) was 1.177 min/E. For the same compound, the 1/Reaction rate (CB-r-G-R-H 1.30435 μM, Csubstrate = 0.5 mM) was 12.05 min/E, the 1/Reaction rate (CB-r-G-R-H 1.30435 μM, Csubstrate = 2 mM) was 2.802 min/E and the 1/Reaction rate (CB-r-G-R-H 1.30435 μM, Csubstrate = 4 mM) was 1.476 min/E. It also gave a 1/Reaction rate (CB-r-G-R-H 1.63043 μM, Csubstrate = 0.5 mM) of 13.97 min/E, a 1/Reaction rate (CB-r-G-R-H 1.63043 μM, Csubstrate = 2 mM) of 3.147 min/E and a 1/Reaction rate (CB-r-G-R-H 1.63043 μM, Csubstrate = 4 mM) of 1.679 min/E. It also gave a 1/Reaction rate (CB-r-G-R-H 2.60870 μM, Csubstrate = 0.5 mM) of 20.14 min/E, a 1/Reaction rate (CB-r-G-R-H 2.60870 μM, Csubstrate = 2 mM) of 4.627 min/E and a 1/Reaction rate (CB-r-G-R-H 2.60870 μM, Csubstrate = 4 mM) of 2.274 min/E. It also gave a 1/Reaction rate (CB-r-G-R-H 3.26087 μM, Csubstrate = 0.5 mM) of 26.42 min/E, a 1/Reaction rate (CB-r-G-R-H 3.26087 μM, Csubstrate = 2 mM) of 5.52 min/E and a 1/Reaction rate (CB-r-G-R-H 3.26087 μM, Csubstrate = 4 mM) of 2.728 min/E. It also gave a 1/Reaction rate (CB-r-G-R-H 4.89130 μM, Csubstrate = 0.5 mM) of 37.79 min/E, a 1/Reaction rate (CB-r-G-R-H 4.89130 μM, Csubstrate = 2 mM) of 8.244 min/E and a 1/Reaction rate (CB-r-G-R-H 4.89130 μM, Csubstrate = 4 mM) of 3.745 min/E. It also gave a 1/Reaction rate (CB-r-G-R-H 6.52174 μM, Csubstrate = 0.5 mM) of 52.69 min/E, a 1/Reaction rate (CB-r-G-R-H 6.52174 μM, Csubstrate = 2 mM) of 10.45 min/E and a 1/Reaction rate (CB-r-G-R-H 6.52174 μM, Csubstrate = 4 mM) of 4.819 min/E. The 1/Reaction rate (CB-r-G-R-H 8.15217 μM, Csubstrate = 0.5 mM) was 62.32 min/E, the 1/Reaction rate (CB-r-G-R-H 8.15217 μM, Csubstrate = 2 mM) was 12.99 min/E and the 1/Reaction rate (CB-r-G-R-H 8.15217 μM, Csubstrate = 4 mM) was 5.669 min/E. It also gave a 1/Reaction rate (CB-r-G-R-H 13.04348 μM, Csubstrate = 0.5 mM) of 98.11 min/E, a 1/Reaction rate (CB-r-G-R-H 13.04348 μM, Csubstrate = 2 mM) of 19.61 min/E and a 1/Reaction rate (CB-r-G-R-H 13.04348 μM, Csubstrate = 4 mM) of 8.47 min/E. The “Intersect of regression curve 1/reaction rate vs ligand concentration” value (“Intersect … vs ligand concentration” for short) (Csubstrate 0.5 mM) was 2.8743 min/E, the “Slope of regression curve 1/reaction rate vs ligand concentration” value (“Slope … vs ligand concentration” below) (Csubstrate 0.5 mM) was 7.3110 min/E μM and the “Intersect … vs ligand concentration” value (Csubstrate 2 mM) was 1.0169 min/E. For the same compound, the “Slope … vs ligand concentration” value (Csubstrate 2 mM) was 1.4375 min/E μM, the “Intersect … vs ligand concentration” value (Csubstrate 4 mM) was 0.7187 min/E and the “Slope … vs ligand concentration” value (Csubstrate 4 mM) was 0.6037 min/E μM. It also gave a pKi (intersection of regression curves Csubstrate 2 and 0.5 mM, read-out: Ki2&3 F Xa binding constant) of 6.50, a pKi (intersection of regression curves Csubstrate 4 and 0.5 mM, read-out: Ki1&3 F Xa binding constant) of 6.49 and a pKi (intersection of regression curves Csubstrate 4 and 2 mM, read-out: Ki1&2 F Xa binding constant) of 6.45. For the same compound, the “binding of the peptide aldehyde with F Xa (reversible or irreversible)” value (intersections of regression curves not on the x axis) was “reversible” and the pKi (read-out: average F Xa binding constant KiM) was 6.48.
